“Also recorded” adds a separate entry of the source. Structures can show the parent of a compound that is named as a salt.
What was measured:
mice [1] = assay: Four-plate test in mice; assay type: in vivo
levels of serotonin = test system: levels of serotonin; parameters: method as in PMID 9044239; settings: mice, 3-day treatment 200 mg/kg; cited from earlier work
mice [2] = assay: Forced swim test (FST) in mice; assay type: in vivo; settings: for Decrease of immobility time: vs control; for Effect on immobility time, given alone at sub-effective dose: i.p., fluoxetine 10, reboxetine 5, bupropion 2.5, HBK-14 1.25, HBK-15 0.625 mg/kg
Method: The studies were carried out on mice according to the method described by Porsolt et al.. The animals were dropped individually into glass cylinders (height 25 cm, diameter 10 cm) containing 10 cm of water, maintained at 23–25°C. Mice were left in the cylinder for 6 min. […] The mouse was judged to be immobile when it remained floating passively in the water.

rats [3] = assay: Elevated plus maze (EPM) test in rats; assay type: in vivo
From the text: Plus-maze apparatus (an automated device produced by Campden Instruments Ltd, UK) made of durable, high density, nonporous black plastic, elevated to a height of 50 cm, consisted of two open arms (50 cm x 10 cm) and two closed arms (50 cm x 10 cm, and 30 cm high walls), arranged so that the two arms of each type were opposite each other. Floor of the plus-maze was made of infrared transparent material what means that there are no visible sensors. The plus-maze was placed in a darkened room; only the centre of the apparatus was illuminated with low-density light (30 lux measured on the maze level). Plus-maze apparatus was connected to PC software by control chassis. Each rat was gently placed in the centre of the plus-maze, facing one of the closed arms, immediately after a 5-min adaptation period in a plastic black box (60 cm x 60 cm x 35 cm). During a 5-min test period, automated Motor Monitor System recorded the number of entries into the closed and open arms, the time spent in either type of the arms. After each trial the maze was wiped clean. Studied compounds and reference drug were administered (i.p.) 30 min before the test.

rats [4] = assay: FST in rats; assay type: in vivo
Method: The experiment was carried out according to the method of Detke et al. [33]. On the first experimental day rats were placed individually in Plexiglas cylinders (40 cm height, 18 cm in diameter) containing 30 cm of water maintained at 25°C for 15 min. After that time the rats were placed for 30 min under a 60-W bulb to dry. 24 hours after the pre-test, the rats were placed again in the cylinders and the total duration of immobility (when a rat remained floating in the water without struggling and was making only those movements necessary to keep its head above water), swimming (when a rat was making active swimming motions, more than necessary to merely maintain its head above water, e.g. moving around in the cylinder) and climbing (when a rat was making active movements with its forepaws in and out of the water, usually directed against the walls) was recorded during the whole 5-min test period. Fresh water was used for each animal.

α1-adrenoceptor = assay: Radioligand binding, [3H]-prazosin, rat cerebral cortex; settings: read-out: Adrenergic Ki α1
[5] = target: T1, Serotonin transporter (SERT) (Rattus norvegicus, UniProt P31652); assay: Radioligand binding, [3H]-citalopram, rat cerebral cortex; settings: read-out: Serotonergic Ki SERT
T1 construct: Rat cerebral cortex was homogenized; from tissue; host or cells: rat cerebral cortex
Method: The supernatant was decanted and pellet was re-suspended in 30 volumes of buffer and centrifuged again. The resulting pellet was re-suspended in the same quantity of the buffer and centrifuged third time in the same conditions. […] Ki values were calculated.

5-HT1A receptors = settings: authors' previous studies; cited from earlier work
[6] = target: T2, human serotonin 5-HT7 receptor (Homo sapiens, UniProt P34969); assay: cAMP functional assay (LANCE Ultra TR-FRET), CHO-K1 cells; assay type: cell-based; settings: for Kb / Antagonist activity weaker than reference antagonist SB-269970 / Emax: 5-HT7; for Kb: Cheng-Prusoff equation, read-out: Antagonist mode Kb; for Antagonist activity weaker than reference antagonist SB-269970: range over HBK-14 and HBK-15; for Emax: CHO-K1, mean of two independent experiments in duplicate, read-out: Agonist mode Emax
T2 construct: host or cells: CHO-K1 (with CRE-bla reporter)
Method: CHO-K1 cells were transfected with a beta lactamase (bla) reporter gene under control of the cyclic AMP response element (CRE) (Life Technologies).
Thawed cells were resuspended in stimulation buffer (HBSS, 5 mM HEPES, 0.5 IBMX, and 0.1% BSA at pH 7.4) at 2x10^5 cells/ml for 5-HT7 receptor. The same volume (10 μl) of cell suspension was added to tested compounds for 5-HT7 receptor. Samples were loaded onto a white opaque half area 96-well microplate. […] The agonist and antagonist were added simultaneously. Cell stimulation was performed for 1h at room temperature. After incubation, cAMP measurements were performed with homogeneous TR-FRET immunoassay using the LANCE Ultra cAMP kit (PerkinElmer, USA). 10 μl of EucAMP Tracer Working Solution and 10 μl of ULight-anti-cAMP Tracer Working Solution were added, mixed, and incubated for 1 h. The TR-FRET signal was read on an EnVision microplate reader (PerkinElmer, USA).

human 5-HT2A receptor = target: T3, human 5-HT2A receptor (Homo sapiens, UniProt P28223); assay: Radioligand binding, [3H]-ketanserin, CHO-K1 cell membranes; settings: read-out: Serotonergic Ki 5-HT2A
T3 construct: expressed in transfected cells; host or cells: CHO-K1
Method: Radioligand binding was performed using membranes from CHO-K1 cells stably transfected with the human 5-HT2A receptor. Monolayer of CHO-K1 cells with stable expression of human receptor after reaching about 90% confluence was washed twice with PBS. After that the cells were scrapped and collected to centrifuge tubes. About 20 volumes of assay buffer was added to each tube and cells were homogenized (3 x 10 sec., 24 000 rpm; Ultra Turrax T25B homogenizator, IKA Labortechnik, USA). Tubes were centrifuged (20 min., 30 000 x g, about 4°C; 3K30 centrifuge, Sigma Laborzentrifugen, Germany). Supernatant was discarded and appropriate volume of assay buffer with 10% glycerol was added and homogenization was repeated. Membrane suspension was aliquoted into cryotubes, freezed in liquid nitrogen and stored until assay in -80°C. Membrane protein concentration was determined by BCA method. Immediately before assay frozen membranes were thawed quickly (about 35°C), mixed and homogenized (60 sec., 24,000 rpm) with appropriate volume of assay buffer to reach desired membrane protein concentration. All assays were carried out in duplicates. […] Microplate was covered with a sealing tape, mixed and incubated for 60 minutes at 27°C. […] Radioactivity was counted in MicroBeta2 scintillation counter (PerkinElmer) at approximately 30% efficiency. Inhibition constants (Ki) were calculated.

5-HT6 receptors = settings: authors' former studies; cited from earlier work
human D2 receptor = target: T4, human D2 receptor (Homo sapiens, UniProt P14416); assay: Radioligand binding, [3H]-methylspiperon, CHO-K1 cell membranes; settings: read-out: Dopaminergic Ki D2
T4 construct: expressed in transfected cells; host or cells: CHO-K1
Method: Radioligand binding was performed using membranes from CHO-K1 cells stably transfected with the human D2 receptor. All assays were carried out in duplicates. […] (+)-butaclamol (10 μM) was used to define nonspecific binding. Microplate was covered with a sealing tape, mixed and incubated for 60 minutes at 37°C. The reaction was terminated by rapid filtration through GF/C filter mate pre-soaked with 0.3% polyethyleneimine for 30 minutes. Ten rapid washes with 200 μl 50 mM Tris buffer (4°C, pH 7.4) were performed using automated harvester system Harvester-96 MACH III FM (Tomtec). The filter mates were dried at 37°C in forced air fan incubator and then solid scintillator MeltiLex was melted on filter mates at 90°C for 5 minutes. Radioactivity was counted in MicroBeta2 scintillation counter (PerkinElmer) at approximately 30% efficiency. Ki values were calculated.

5-HT7 receptors = settings: authors' previous studies; cited from earlier work
[7] = pCPA 200 mg/kg i.p. once daily for 3 days
[8] = 2.5 mg/kg i.p. 30 min before test
[9] = 1.25 mg/kg i.p. 30 min before test
[10] = i.p., ANOVA over the doses tested
[11] = 2.5 mg/kg i.p., pCPA interaction experiment (Fig 8A, 8B)
[12] = 5 mg/kg i.p. 30 min before test

T2 sequence (P34969 whole entry): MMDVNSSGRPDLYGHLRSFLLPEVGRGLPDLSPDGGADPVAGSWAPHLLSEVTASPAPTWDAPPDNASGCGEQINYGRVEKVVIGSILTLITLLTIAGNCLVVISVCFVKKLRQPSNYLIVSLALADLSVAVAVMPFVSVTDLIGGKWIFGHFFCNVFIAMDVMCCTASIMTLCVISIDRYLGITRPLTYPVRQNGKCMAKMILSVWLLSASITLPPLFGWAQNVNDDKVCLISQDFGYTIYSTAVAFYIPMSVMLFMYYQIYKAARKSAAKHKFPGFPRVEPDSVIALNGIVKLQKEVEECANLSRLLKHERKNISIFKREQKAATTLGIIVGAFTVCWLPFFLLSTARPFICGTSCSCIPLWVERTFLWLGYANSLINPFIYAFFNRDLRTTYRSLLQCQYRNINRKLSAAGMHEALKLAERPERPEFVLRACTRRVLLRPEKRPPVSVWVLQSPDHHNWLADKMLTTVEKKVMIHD
T3 sequence (P28223 whole entry): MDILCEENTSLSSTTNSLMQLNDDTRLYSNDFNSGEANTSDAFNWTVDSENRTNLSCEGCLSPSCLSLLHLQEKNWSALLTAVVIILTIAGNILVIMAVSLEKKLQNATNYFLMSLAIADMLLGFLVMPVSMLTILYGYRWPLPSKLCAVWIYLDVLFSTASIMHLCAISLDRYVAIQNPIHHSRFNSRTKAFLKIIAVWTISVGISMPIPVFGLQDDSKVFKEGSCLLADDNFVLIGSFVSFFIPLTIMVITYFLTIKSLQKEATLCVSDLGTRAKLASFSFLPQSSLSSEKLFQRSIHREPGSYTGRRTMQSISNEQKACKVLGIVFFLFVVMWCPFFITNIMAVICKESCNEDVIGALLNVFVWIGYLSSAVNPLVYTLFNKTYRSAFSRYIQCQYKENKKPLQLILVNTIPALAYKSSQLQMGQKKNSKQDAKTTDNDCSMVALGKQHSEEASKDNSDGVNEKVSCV
T4 sequence (P14416 whole entry): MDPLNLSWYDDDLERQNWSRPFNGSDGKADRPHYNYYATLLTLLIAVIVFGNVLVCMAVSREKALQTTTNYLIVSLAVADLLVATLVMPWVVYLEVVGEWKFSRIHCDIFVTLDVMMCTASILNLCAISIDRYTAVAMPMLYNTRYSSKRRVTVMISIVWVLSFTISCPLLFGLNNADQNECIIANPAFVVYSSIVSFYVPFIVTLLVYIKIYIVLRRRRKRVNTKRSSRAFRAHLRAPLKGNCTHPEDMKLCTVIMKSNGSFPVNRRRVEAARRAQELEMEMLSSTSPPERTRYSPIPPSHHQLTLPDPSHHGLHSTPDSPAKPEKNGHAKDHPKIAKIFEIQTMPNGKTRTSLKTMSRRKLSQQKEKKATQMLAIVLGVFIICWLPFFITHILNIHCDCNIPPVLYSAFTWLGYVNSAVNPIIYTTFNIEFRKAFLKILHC
T1 sequence (P31652 whole entry): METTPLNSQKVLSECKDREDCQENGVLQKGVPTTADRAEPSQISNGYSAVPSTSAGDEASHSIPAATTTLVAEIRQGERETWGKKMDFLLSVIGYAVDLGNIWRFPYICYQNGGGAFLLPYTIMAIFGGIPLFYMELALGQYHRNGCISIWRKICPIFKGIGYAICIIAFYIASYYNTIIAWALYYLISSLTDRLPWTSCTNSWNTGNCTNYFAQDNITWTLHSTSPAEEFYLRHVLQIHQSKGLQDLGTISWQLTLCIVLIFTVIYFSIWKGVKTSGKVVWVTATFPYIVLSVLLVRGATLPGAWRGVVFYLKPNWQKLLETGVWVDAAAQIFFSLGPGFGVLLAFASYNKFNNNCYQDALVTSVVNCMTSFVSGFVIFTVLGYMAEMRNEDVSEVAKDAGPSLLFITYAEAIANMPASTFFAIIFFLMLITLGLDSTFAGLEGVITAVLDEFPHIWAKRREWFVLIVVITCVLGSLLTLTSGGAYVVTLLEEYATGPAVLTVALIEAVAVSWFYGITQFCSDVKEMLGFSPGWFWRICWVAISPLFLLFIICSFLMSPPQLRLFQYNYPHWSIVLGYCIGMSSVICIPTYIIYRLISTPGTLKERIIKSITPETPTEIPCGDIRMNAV

In the case of `N[C@@H](Cc1ccc(Cl)cc1)C(=O)O` (racemic) [pCPA, p-Chlorophenylalanine, reference compound], the “Effect on the number of punished crossings, given alone” value (mice [1]; [7]) is given as “showed no effect; also recorded: had no effect”, the “Reduction of the levels of serotonin in cortex” value (levels of serotonin) is given as “around 30%” and the “Reduction of the levels of serotonin in diencephalon” value (levels of serotonin) is given as roughly 35%. The “Reduction of the levels of serotonin in midbrain” value (levels of serotonin) was roughly 24%, the “Reduction of the levels of serotonin in pons & medulla” value (levels of serotonin) was roughly 34% and the “Effect on immobility, given alone” value (mice [2]; [7]) was “did not influence immobility time”.
In the case of `CN1C(=O)CN=C(c2ccccc2)c2cc(Cl)ccc21` [Diazepam, diazepam, reference compound], the “Increase of the percentage of open-arm entries” value (rats [3]; [8]) is reported as 131%, the “Increase of the percentage of time spent in the open arms” value (rats [3]; [8]) is reported as 672% and the “Increase of the number of punished crossings” value (mice [1]; [9]) is reported as 62%. The “Increase of the number of punished crossings” value (mice [1]; [8]) was 73%.
With `CN(C)CCC[C@@]1(c2ccc(F)cc2)OCc2cc(C#N)ccc21` [Escitalopram, escitalopram, reference compound] the Increase of swimming (rats [4]; 30 mg/kg i.p.) was 171%, the “Decrease of immobility time” value (rats [4]; 30 mg/kg i.p. 30 min before test) was 48% and the “Effect on duration of climbing” value (rats [4]; [10]) was “no influence”. The “Decrease of immobility time” value (mice [2]; [8]) was 42%.
In the case of `COc1ccccc1N1CCN(CCOCCOc2c(C)cccc2C)CC1` [HBK-14, 1-{2-[2-(2,6-dimethlphenoxy)ethoxy]ethyl}-4-(2-methoxyphenyl)piperazynine hydrochloride], the Ki (α1-adrenoceptor) is reported as 0.023 µM, the “Increase of the percentage of open-arm entries” value (rats [3]; [8]) is reported as 90% and the “Increase of the percentage of time spent in the open arms” value (rats [3]; [8]) is reported as 591%. For the same compound, the Ki [5] was 3.5 µM, the “Increase of the number of punished crossings” value (mice [1]; [8]) was 68% and the “Increase of the number of punished crossings” value (mice [1]; [11]) was 105%. For the same compound, the “Increase of the number of punished crossings” value (mice [1]; [12]) was 87%, the Ki (5-HT1A receptors) was 0.041 µM and the IC50 [6] was 0.077 µM. For the same compound, the Kb [6] was 0.024 µM, the “Antagonist activity weaker than reference antagonist SB-269970” value [6] was 51-147 fold and the Emax [6] was 19%. The Ki (human 5-HT2A receptor) was 0.264 µM, the “Increase of swimming behaviour” value (rats [4]; 5 mg/kg i.p.) was 185% and the “Decrease of immobility time” value (rats [4]; [12]) was 38%. For the same compound, the “Effect on duration of climbing” value (rats [4]; [10]) was “no significant effect”, the Ki (5-HT6 receptors) was 9.97 µM and the Ki (human D2 receptor) was 0.219 µM. The Ki (5-HT7 receptors) was 0.156 µM, the “Decrease of immobility time” value (mice [2]; [8]) was 30% and the Reduction of immobility (mice [2]; 2.5 mg/kg i.p., pCPA interaction experiment (Fig 5A)) was 25%. For the same compound, the “Decrease of immobility time” value (mice [2]; [12]) was 31% and the “Effect on immobility time, given alone at sub-effective dose” value (from here on “Effect on immobility time, given alone”) (mice [2]) was “none of tested compounds (HBK-14 1.25 mg/kg and HBK-15 0.625 mg/kg) administered alone affected the mouse immobility”.
For `COc1ccccc1N1CCN(CCOCCOc2c(C)cccc2Cl)CC1` [HBK-15, 2-[2-(2-chloro-6-methylphenoxy)ethoxy]ethyl-4-(2-methoxyphenyl)piperazynine dihydrochloride], the Ki (α1-adrenoceptor) was 0.013 µM, the “Increase of the percentage of open-arm entries” value (rats [3]; [12]) was 89% and the “Increase of the percentage of time spent in the open arms” value (rats [3]; [12]) was 198%. For the same compound, the Ki [5] was 0.529 µM, the “Increase of the number of punished crossings” value (mice [1]; [8]) was 52% and the “Increase of the number of punished crossings” value (mice [1]; 2.5 mg/kg i.p., WAY-100635 interaction experiment (Fig 8C, 8D), 2.5 mg/kg) was 111%. The “Increase of the number of punished crossings” value (mice [1]; [11]) was 109%, the “Increase of the number of punished crossings” value (mice [1]; [12]) was 88% and the Ki (5-HT1A receptors) was less than 0.001 µM. For the same compound, the IC50 [6] was 0.22 µM, the Kb [6] was 0.069 µM and the “Antagonist activity weaker than reference antagonist SB-269970” value [6] was 51-147 fold. The Emax [6] was 0%, the Ki (human 5-HT2A receptor) was 0.109 µM and the “Increase of swimming time” value (rats [4]; 1.25 mg/kg i.p.) was 166%. The “Decrease of immobility time” value (rats [4]; [9]) was 30%, the “Increase of swimming time” value (rats [4]; 2.5 mg/kg i.p.) was 191% and the “Decrease of immobility time” value (rats [4]; [8]) was 38%. The “Effect on duration of climbing” value (rats [4]; [10]) was “no significant influence”, the Ki (5-HT6 receptors) was 9.62 µM and the Ki (human D2 receptor) was 0.054 µM. The Ki (5-HT7 receptors) was 0.034 µM, the “Decrease of immobility time” value (mice [2]; [9]) was 40% and the Reduction of immobility (mice [2]; 1.25 mg/kg i.p., pCPA interaction experiment (Fig 5B)) was 22%. The “Decrease of immobility time” value (mice [2]; [8]) was 42%, the “Decrease of immobility time” value (mice [2]; [12]) was 46% and the “Effect on immobility time, given alone” value (mice [2]) was “none of tested compounds (HBK-14 1.25 mg/kg and HBK-15 0.625 mg/kg) administered alone affected the mouse immobility”.
With `CN(C)CCCN1c2ccccc2CCc2ccccc21` [Imipramine, imipramine, reference compound] the “Decrease of immobility time” value (rats [4]; 10 mg/kg i.p. 30 min before test) was 51%, the “Effect on duration of swimming” value (rats [4]; [10]) was “no significant effect” and the “Decrease of immobility time” value (mice [2]; [12]) was 50%.
`Cc1ccc(N(CC2=NCCN2)c2cccc(O)c2)cc1` [Phentolamine, phentolamine, reference compound] gave a Ki (α1-adrenoceptor) of 0.009 µM.
For `COc1ccccc1N1CCN(CCN(C(=O)C2CCCCC2)c2ccccn2)CC1.Cl.Cl.Cl` [WAY-100635, N-{2-[4-(2-methoxyphenyl)-1-piperazinyl]ethyl}-N-(2-pyridinyl)cyclohexanecarboxamide trihydrochloride, reference compound], the “Effect on the number of punished crossings, given alone” value (mice [1]; WAY-100635 0.1 mg/kg s.c., 0.1 mg/kg) was “had no effect; also recorded: showed no effect” and the “Effect on duration of immobility time, given alone” value (mice [2]; WAY-100635 0.1 mg/kg s.c.) was “had no effect”.
With `CC(NC(C)(C)C)C(=O)c1cccc(Cl)c1` (stereo not shown) [bupropion, reference compound] the “Effect on immobility time, given alone” value (mice [2]) was “did not affect”.
With `CNCCC(Oc1ccc(C(F)(F)F)cc1)c1ccccc1` (stereo not shown) [fluoxetine, reference compound] the “Effect on immobility time, given alone” value (mice [2]) was “did not affect”.
For `CCOc1ccccc1OC(c1ccccc1)C1CNCCO1` (stereo not shown) [reboxetine, reference compound], the “Effect on immobility time, given alone” value (mice [2]) was “did not affect”.

From paper PMC4640659, “Antidepressant- and Anxiolytic-Like Effects of New Dual 5-HT1A and 5-HT7 Antagonists in Animal Models” (PLoS ONE, 2015)
